From US12023319B2, “Carboxylic acid aromatic amides” (priority 2016, dated 2024)

These compounds were tested against T1, human Bradykinin B1 receptor (Homo sapiens, UniProt P46663) (assay: Calcium flux assay (FLIPR), CHO-K1 cells expressing human Bradykinin B1 receptor, absence of 0.1% BSA (hB1 free IC50)). Details: absence of 0.1% BSA in assay buffer.
T1 construct: host or cells: CHO-K1
T1 sequence (P46663 1-353): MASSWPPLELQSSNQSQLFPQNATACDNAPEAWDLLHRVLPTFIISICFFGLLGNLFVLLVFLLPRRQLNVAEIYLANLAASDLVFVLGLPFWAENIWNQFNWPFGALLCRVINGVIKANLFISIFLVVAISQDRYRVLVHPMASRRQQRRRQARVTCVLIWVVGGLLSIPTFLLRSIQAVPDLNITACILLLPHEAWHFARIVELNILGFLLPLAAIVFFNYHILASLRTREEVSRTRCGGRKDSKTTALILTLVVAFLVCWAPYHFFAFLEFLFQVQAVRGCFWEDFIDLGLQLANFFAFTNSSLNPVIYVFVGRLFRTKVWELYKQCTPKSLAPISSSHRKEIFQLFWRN
Format: cell-based
Method in brief: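 CHO-K1 hB1-D1 cells, dye-loaded, given compounds (8 concentrations, triplicate, 1% DMSO) 30 min at 28° C, then stimulated with selective B1 agonist peptide; Ca2+ fluorescence read at 538 nm on FLIPR. Peak response normalised to DMSO and 20 µM Lys-(Des-Arg-Leu)-Bradykinin full inhibition; IC50 fitted.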

SMILES	IC50 [nM]
O=C(O)c1cc(NC(=O)C2(c3ccc(Cl)cc3F)CC2)ccc1-c1cnc(C2CCC2)s1 [Example 146, 5-({[1-(4-Chloro-2-fluorophenyl)cyclopropyl]carbonyl}amino)-2-(2-cyclobutyl-1,3-thiazol-5-yl)benzoic acid]	3.7
Cc1ccc(C2(C(=O)Nc3ccc(-c4cnc(C5CCC5)s4)c(C(=O)O)c3)CC2)c(F)c1 [Example 147, 2-(2-Cyclobutyl-1,3-thiazol-5-yl)-5-({[1-(2-fluoro-4-methylphenyl)cyclopropyl]carbonyl}amino)benzoic acid]	13
O=C(O)c1cc(NC(=O)C2(c3ccc(C(F)(F)F)cc3F)CC2)ccc1-c1cnc(C2CCC2)s1 [Example 148, 2-(2-Cyclobutyl-1,3-thiazol-5-yl)-5-[({1-[2-fluoro-4-(trifluoromethyl)phenyl]cyclopropyl}carbonyl)amino]benzoic acid]	3.4
O=C(O)c1cc(NC(=O)C2(c3ccc(OC(F)(F)F)cc3F)CC2)ccc1-c1cnc(C2CCC2)s1 [Example 149, 2-(2-Cyclobutyl-1,3-thiazol-5-yl)-5-[({1-[2-fluoro-4-(trifluoromethoxy)phenyl]cyclopropyl}carbonyl)amino]benzoic acid]	3.2
Cc1ccc(C2(C(=O)Nc3ccc(-c4cnn(C5CC5)c4)c(C(=O)O)c3)CC2)c(F)c1 [Example 150, 2-(1-Cyclopropyl-1H-pyrazol-4-yl)-5-({[1-(2-fluoro-4-methylphenyl)cyclopropyl]carbonyl}amino)benzoic acid]	500
CC1(Cn2cc(-c3ccc(NC(=O)C4(c5ccc(C(F)(F)F)cc5F)CC4)cc3C(=O)O)cn2)CC1 [Example 151, 5-[({1-[2-Fluoro-4-(trifluoromethyl)phenyl]cyclopropyl}carbonyl)amino]-2-{1-[(1-methylcyclopropyl)methyl]-1H-pyrazol-4-yl}benzoic acid]	22
CC1(Cn2cc(-c3ccc(NC(=O)C4(c5ccc(OC(F)(F)F)cc5F)CC4)cc3C(=O)O)cn2)CC1 [Example 152, 5-[({1-[2-Fluoro-4-(trifluoromethoxy)phenyl]cyclopropyl}carbonyl)amino]-2-{1-[(1-methylcyclopropyl)methyl]-1H-pyrazol-4-yl}benzoic acid]	8.1
CC(C1CC1)n1cc(-c2ccc(NC(=O)C3(c4ccc(C(F)(F)F)cc4F)CC3)cc2C(=O)O)cn1 (stereo not drawn) [Example 153, 2-[1-(1-Cyclopropylethyl)-1H-pyrazol-4-yl]-5-[({1-[2-fluoro-4-(trifluoromethyl)phenyl]cyclopropyl}carbonyl)amino]benzoic acid]	8.7
COCCn1cc(-c2ccc(NC(=O)C3(c4ccc(C(F)(F)F)cc4F)CC3)cc2C(=O)O)cn1 [Example 155, 5-[({1-[2-Fluoro-4-(trifluoromethyl)phenyl]cyclopropyl}carbonyl)amino]-2-[1-(2-methoxyethyl)-1H-pyrazol-4-yl]benzoic acid]	270
CCc1ccc(-c2ccc(NC(=O)C3(c4ccc(C(F)(F)F)cc4F)CC3)cc2C(=O)O)cn1 [Example 160, 2-(6-Ethylpyridin-3-yl)-5-[({1-[2-fluoro-4-(trifluoromethyl)phenyl]cyclopropyl}carbonyl)amino]benzoic acid]	21
CCc1ccc(-c2ccc(NC(=O)C3(c4ccc(OC(F)(F)F)cc4F)CC3)cc2C(=O)O)cn1 [Example 161, 2-(6-Ethylpyridin-3-yl)-5-[({1-[2-fluoro-4-(trifluoromethoxy)phenyl]cyclopropyl}carbonyl)amino]benzoic acid]	15
CCc1ccc(-c2c(F)cc(NC(=O)C3(c4ccc(C(F)(F)F)cc4F)CC3)cc2C(=O)O)cn1 [Example 162, 2-(6-Ethylpyridin-3-yl)-3-fluoro-5-[({1-[2-fluoro-4-(trifluoromethyl)phenyl]cyclopropyl}carbonyl)amino]benzoic acid]	14
Cn1ncc2ccc(-c3ccc(NC(=O)C4(c5ccc(OC(F)(F)F)cc5F)CC4)cc3C(=O)O)cc21 [Example 164, 5-[({1-[2-Fluoro-4-(trifluoromethoxy)phenyl]cyclopropyl}carbonyl)amino]-2-(1-methyl-1H-indazol-6-yl)benzoic acid]	120
Cn1ncc2ccc(-c3c(F)cc(NC(=O)C4(c5ccc(C(F)(F)F)cc5F)CC4)cc3C(=O)O)cc21 [Example 165, 3-Fluoro-5-[({1-[2-fluoro-4-(trifluoromethyl)phenyl]cyclopropyl}carbonyl)amino]-2-(1-methyl-1H-indazol-6-yl)benzoic acid]	63
Cn1ncc2ccc(-c3c(F)cc(NC(=O)C4(c5ccc(OC(F)(F)F)cc5F)CC4)cc3C(=O)O)cc21 [Example 166, 3-Fluoro-5-[({1-[2-fluoro-4-(trifluoromethoxy)phenyl]cyclopropyl}carbonyl)amino]-2-(1-methyl-1H-indazol-6-yl)benzoic acid]	24
O=C(O)c1cc(NC(=O)C2(c3ccc(C(F)(F)F)cc3F)CC2)ccc1-c1cnc(C2CCCC2)s1 [Example 167, 2-(2-Cyclopentyl-1,3-thiazol-5-yl)-5-[({1-[2-fluoro-4-(trifluoromethyl)phenyl]cyclopropyl}carbonyl)amino]benzoic acid]	3.4
O=C(O)c1cc(NC(=O)C2(c3ccc(C(F)(F)F)cc3F)CC2)cc(F)c1-c1cnc(C2CCC2)s1 [Example 168, 2-(2-Cyclobutyl-1,3-thiazol-5-yl)-3-fluoro-5-[({1-[2-fluoro-4-(trifluoromethyl)phenyl]cyclopropyl}carbonyl)amino]benzoic acid]	3.3
Cc1cnc(-c2ccc(NC(=O)C3(c4ccc(C(F)(F)F)cc4F)CC3)cc2C(=O)O)cn1 [Example 169, 5-[({1-[2-Fluoro-4-(trifluoromethyl)phenyl]cyclopropyl}carbonyl)amino]-2-(5-methylpyrazin-2-yl)benzoic acid]	2100
O=C(O)c1cc(NC(=O)C2(c3ccc(OC(F)(F)F)cc3F)CC2)ccc1-c1cn(C2CCC2)cn1 [Example 170, 2-(1-Cyclobutyl-1H-imidazol-4-yl)-5-[({1-[2-fluoro-4-(trifluoromethoxy)phenyl]cyclopropyl}carbonyl)amino]benzoic acid]	2100
COc1ccc(C2(C(=O)Nc3ccc(-c4cnn(C5CCC5)c4)c(C(=O)O)c3)CC2)c(F)c1 [Example 171, 2-(1-Cyclobutyl-1H-pyrazol-4-yl)-5-({[1-(2-fluoro-4-methoxyphenyl)cyclopropyl]carbonyl}amino)benzoic acid]	390
O=C(O)c1cc(NC(=O)C2(c3ccc(C(F)(F)F)cc3F)CC2)cc(F)c1-c1cnn(CC(F)(F)F)c1 [Example 172, 3-Fluoro-5-[({1-[2-fluoro-4-(trifluoromethyl)phenyl]cyclopropyl}carbonyl)amino]-2-[1-(2,2,2-trifluoroethyl)-1H-pyrazol-4-yl]benzoic acid]	30
